The values that follow come from ChEMBL document CHEMBL4382249, “1-Arylsulfonyl indoline-benzamides as a new antitubulin agents, with inhibition of histone deacetylase” (Eur J Med Chem, 2019).

Test [1] has as its system A549. Description: Growth inhibition of human A549 cells after 48 hrs by SRB assay. Format: functional, cell-based. The following applies: A549, 48 h. For orientation: Sulforhodamine B stains cellular protein and so reports cell mass.
For test [2], the system named is MKN-45. The test is described as follows: Growth inhibition of human MKN45 cells after 48 hrs by SRB assay. It is filed as functional, cell-based. The following applies: MKN-45, 48 h.
Test [3] concerns the target Tubulin (Bos taurus, UniProt Q6B856+Q862L2+Q862F3).
The subject of test [4] is KB. Description: Growth inhibition of human KB cells after 48 hrs by SRB assay. It is filed as functional, cell-based.
Test [5] addresses Histone deacetylase 4 (Homo sapiens, UniProt P56524). Description: Inhibition of human HDAC4 using fluorogenic p53-derived peptide RHKK(Ac) as substrate by fluorescence assay.
Test [6] addresses T1, Polyamine deacetylase HDAC10 (Homo sapiens, UniProt Q969S8).
T1 sequence (Q969S8 whole entry): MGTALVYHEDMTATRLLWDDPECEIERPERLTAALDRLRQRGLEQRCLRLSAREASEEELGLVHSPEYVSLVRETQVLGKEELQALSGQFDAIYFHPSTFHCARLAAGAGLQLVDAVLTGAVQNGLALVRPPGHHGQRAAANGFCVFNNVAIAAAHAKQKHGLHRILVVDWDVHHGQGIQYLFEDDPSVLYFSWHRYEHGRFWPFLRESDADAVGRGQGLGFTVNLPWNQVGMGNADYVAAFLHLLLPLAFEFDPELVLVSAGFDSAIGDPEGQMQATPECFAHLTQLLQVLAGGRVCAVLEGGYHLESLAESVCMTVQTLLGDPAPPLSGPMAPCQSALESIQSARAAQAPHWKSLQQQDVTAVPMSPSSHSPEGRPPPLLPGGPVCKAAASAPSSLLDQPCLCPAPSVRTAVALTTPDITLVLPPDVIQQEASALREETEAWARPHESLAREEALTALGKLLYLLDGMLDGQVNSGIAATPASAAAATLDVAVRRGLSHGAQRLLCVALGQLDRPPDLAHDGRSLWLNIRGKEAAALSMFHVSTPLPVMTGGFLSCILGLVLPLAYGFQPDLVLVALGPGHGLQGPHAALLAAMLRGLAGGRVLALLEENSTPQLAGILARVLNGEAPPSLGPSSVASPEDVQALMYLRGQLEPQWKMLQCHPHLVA
Description: Inhibition of human HDAC10 using RHKKAc as substrate by fluorescence assay.

Test [7] deals with Histone deacetylase 9 (Homo sapiens, UniProt Q9UKV0). The test is described as follows: Inhibition of human HDAC9 using fluorogenic p53 (379-382) peptide RHKK(Ac) as substrate by fluorescence assay.
The target of test [8] is T2, Tubulin (Bos taurus) (UniProt Q6B856+Q862L2+Q862F3). The following applies: at 1 µM.
The target of test [9] is T2, Tubulin (Bos taurus). As to conditions: at 5 µM; call rule not given here.
Test [10] can be described thus: Growth inhibition of human KB-S15 cells after 48 hrs by SRB assay. Format: functional. As to conditions: KB-S15, 48 h.
The nature of test [11]: Growth inhibition of human KB-7d cells after 48 hrs by SRB assay. As to conditions: KB7D. It is filed as functional.
Test [12] in a line: Growth inhibition of human KB-VIN10 cells after 48 hrs by SRB assay. It is filed as functional. The following applies: KB-VIN10, 48 h.

Chain of Histone deacetylase 4 (P56524 whole entry): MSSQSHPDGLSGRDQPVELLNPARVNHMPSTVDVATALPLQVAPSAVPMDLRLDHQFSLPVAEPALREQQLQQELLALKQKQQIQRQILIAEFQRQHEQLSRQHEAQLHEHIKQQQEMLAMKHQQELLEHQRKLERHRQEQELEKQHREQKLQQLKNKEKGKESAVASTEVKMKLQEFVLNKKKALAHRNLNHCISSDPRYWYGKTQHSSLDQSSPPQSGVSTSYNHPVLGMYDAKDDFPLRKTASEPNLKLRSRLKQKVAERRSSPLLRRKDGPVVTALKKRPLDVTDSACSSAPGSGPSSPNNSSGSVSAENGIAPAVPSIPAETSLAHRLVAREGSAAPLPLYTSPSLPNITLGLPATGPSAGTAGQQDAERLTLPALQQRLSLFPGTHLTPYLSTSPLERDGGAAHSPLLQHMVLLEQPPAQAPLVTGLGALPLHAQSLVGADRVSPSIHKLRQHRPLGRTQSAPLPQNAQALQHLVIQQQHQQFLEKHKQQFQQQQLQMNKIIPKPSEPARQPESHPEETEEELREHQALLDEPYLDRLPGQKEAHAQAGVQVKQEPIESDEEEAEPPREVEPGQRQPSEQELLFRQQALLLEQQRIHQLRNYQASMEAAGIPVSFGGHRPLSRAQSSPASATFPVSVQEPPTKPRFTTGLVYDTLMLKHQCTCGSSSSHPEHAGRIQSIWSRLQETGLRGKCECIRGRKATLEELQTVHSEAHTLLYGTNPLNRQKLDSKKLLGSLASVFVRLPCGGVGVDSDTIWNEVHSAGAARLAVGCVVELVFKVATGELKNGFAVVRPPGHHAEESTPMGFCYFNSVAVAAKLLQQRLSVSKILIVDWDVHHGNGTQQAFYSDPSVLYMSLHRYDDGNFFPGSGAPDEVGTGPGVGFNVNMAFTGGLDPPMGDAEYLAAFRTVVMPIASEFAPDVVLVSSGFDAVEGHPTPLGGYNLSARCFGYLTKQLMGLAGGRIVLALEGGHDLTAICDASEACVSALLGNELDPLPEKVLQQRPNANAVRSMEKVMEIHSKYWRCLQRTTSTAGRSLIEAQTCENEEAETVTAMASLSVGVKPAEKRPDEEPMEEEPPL
Chain of Histone deacetylase 9 (Q9UKV0 whole entry): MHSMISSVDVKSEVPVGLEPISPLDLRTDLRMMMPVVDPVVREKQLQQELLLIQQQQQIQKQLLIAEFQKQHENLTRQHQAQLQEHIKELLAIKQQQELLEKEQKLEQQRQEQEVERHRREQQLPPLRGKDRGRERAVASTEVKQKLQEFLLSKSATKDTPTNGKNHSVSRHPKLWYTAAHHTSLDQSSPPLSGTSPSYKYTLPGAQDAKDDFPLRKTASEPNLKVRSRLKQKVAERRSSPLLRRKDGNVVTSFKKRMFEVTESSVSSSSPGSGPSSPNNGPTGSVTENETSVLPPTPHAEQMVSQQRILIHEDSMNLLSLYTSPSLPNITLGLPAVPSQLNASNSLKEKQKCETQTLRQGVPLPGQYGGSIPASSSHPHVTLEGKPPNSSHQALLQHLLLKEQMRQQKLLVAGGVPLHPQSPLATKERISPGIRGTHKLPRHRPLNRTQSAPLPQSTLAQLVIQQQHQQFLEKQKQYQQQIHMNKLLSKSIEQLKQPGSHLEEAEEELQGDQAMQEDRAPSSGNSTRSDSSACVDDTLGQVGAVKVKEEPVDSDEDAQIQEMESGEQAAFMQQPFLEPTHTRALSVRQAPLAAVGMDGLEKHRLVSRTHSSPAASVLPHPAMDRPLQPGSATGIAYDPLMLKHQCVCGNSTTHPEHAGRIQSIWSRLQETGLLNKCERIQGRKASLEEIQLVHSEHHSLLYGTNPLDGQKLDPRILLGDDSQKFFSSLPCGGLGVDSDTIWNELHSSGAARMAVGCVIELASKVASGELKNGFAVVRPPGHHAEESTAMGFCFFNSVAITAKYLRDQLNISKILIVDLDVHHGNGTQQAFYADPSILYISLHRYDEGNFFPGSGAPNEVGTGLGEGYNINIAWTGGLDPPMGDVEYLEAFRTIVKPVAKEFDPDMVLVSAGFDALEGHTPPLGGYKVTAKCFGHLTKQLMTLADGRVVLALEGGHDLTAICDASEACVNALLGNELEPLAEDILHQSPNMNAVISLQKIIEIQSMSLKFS

Regarding `COc1ccc(S(=O)(=O)n2ccc3ccc(NCc4ccc(C(=O)Nc5ccccc5N)cc4)cc32)cc1`, the IC50 (usually the concentration that gives 50% inhibition) is 3900 nM in test [1], 2500 nM in test [2], above 10000 nM in test [3] and 1440 nM in test [4].

On to `COc1ccc(S(=O)(=O)N2CCc3cccc(NCc4ccc(C(=O)Nc5cccc(N)c5)cc4)c32)cc1`, for which the IC50 in [1] turned out to be 450 nM; in [2], 420 nM; in test [3], 2300 nM; in [4], 200 nM.

For `N#Cc1ccc(S(=O)(=O)N2CCc3cccc(NCc4ccc(C(=O)Nc5ccccc5N)cc4)c32)cc1`, the IC50 in test [1] is 920 nM; in test [2], 880 nM; in test [3], 6400 nM; in [4], 560 nM.

In the case of `COc1ccc(S(=O)(=O)N2CCc3cccc(NCc4ccc(C(=O)Nc5ccccc5O)cc4)c32)cc1`, the IC50 is 10500 nM in [1], 10000 nM in test [2], above 10000 nM in test [3] and 8700 nM in test [4].

Regarding `Nc1ccccc1NC(=O)c1ccc(CNc2cccc3c2N(S(=O)(=O)c2ccc(O)cc2)CC3)cc1`, the IC50 in [1] came out at 860 nM; in [2], 780 nM; in test [3], 3300 nM; in [4], 440 nM.

`COc1ccc(S(=O)(=O)N2CCc3cccc(/C=C/c4ccc(C(=O)Nc5ccccc5N)cc4)c32)cc1`: the 50% inhibitory concentration (IC50) in test [1] is 270 nM; in [2], 200 nM; in test [3], 2700 nM; in [4] it was 230 nM.

In test [1], `COc1ccc(S(=O)(=O)N2CCc3cccc(NC(=O)c4ccc(C(=O)Nc5ccccc5N)cc4)c32)cc1` gave a half-inhibitory concentration (IC50) above 10000 nM.

As to `COc1ccc(S(=O)(=O)N2CCc3cc(NCc4ccc(C(=O)Nc5ccccc5N)cc4)ccc32)cc1`, the IC50 was 8900 nM in [1], 5000 nM in [2], above 10000 nM in [3] and 2100 nM in [4].

Consider `Nc1ccccc1NC(=O)c1ccc(CNc2cccc3c2N(S(=O)(=O)c2ccc(Cl)cc2)CC3)cc1`, for which the IC50 in test [1] is 560 nM; in [2], 460 nM; in test [3], 4000 nM; in test [4], 210 nM.

Take `Nc1ccccc1NC(=O)c1ccc(CNC(=O)OCc2cccnc2)cc1` [ENTINOSTAT]: the IC50 result is “Not Active” in [5]; 1200 nM in test [2]; “Not Active” in test [6]; “Not Active” in test [7]; 520 nM in [4].

Turning to `Nc1ccccc1NC(=O)c1ccc(CNc2cccc3c2N(S(=O)(=O)c2ccccc2)CC3)cc1`, the IC50 worked out at 870 nM in [1], 780 nM in [2], 3200 nM in test [3] and 260 nM in test [4].

For the compound `COc1ccc(S(=O)(=O)Nc2cccnc2Nc2ccc(O)cc2)cc1` [ABT-751], the inhibition (usually the change of the read-out against control, counted positive when it falls) in [8] is 40.2%; in test [9], 71.6%. The IC50 in test [3] is 3200 nM.

Take `COc1ccc(S(=O)(=O)N2CCc3cccc(NCc4cccc(C(=O)Nc5ccccc5N)c4)c32)cc1`: the IC50 amounted to 5700 nM in [1], 3900 nM in test [2], 8500 nM in test [3] and 2200 nM in test [4].

In the case of `Nc1ccccc1NC(=O)c1ccc(CNc2cccc3c2N(S(=O)(=O)c2ccc(F)cc2)CC3)cc1`, the IC50 was found to be 930 nM in test [1], 870 nM in [2], 3700 nM in [3] and 540 nM in test [4].

For the compound `COc1ccc(S(=O)(=O)N2CCc3cccc(CCc4ccc(C(=O)Nc5ccccc5N)cc4)c32)cc1`, the IC50 came to 200 nM in test [1], 130 nM in [2], 2500 nM in test [3] and 110 nM in test [4].

For `COc1ccc(S(=O)(=O)N2CCc3cccc(NCc4ccc(C(=O)Nc5ccccc5N)cc4)c32)cc1OC`, the IC50 in test [1] is 2700 nM; in test [2], 2300 nM; in test [3] it was above 10000 nM; in test [4] it was 1400 nM.

For the compound `COc1ccc(S(=O)(=O)N2CCc3cccc(Nc4ccc(C(=O)Nc5ccccc5N)cc4)c32)cc1`, the IC50 worked out at 106 nM in test [10]; 190 nM in [1]; 140 nM in test [2]; 78.3 nM in test [11]; 114 nM in test [12]; 2300 nM in test [3]. For the same compound, in test [4], the IC50 came to 120 nM. The results for the inhibition in test [8] and in [9] were 64.3% and 98.8%, respectively.

`COc1ccc(S(=O)(=O)N2CCc3cccc(NCc4ccc(C(=O)Nc5ccc(N)cc5)cc4)c32)cc1`: the IC50 in test [1] was 570 nM; in test [2], 480 nM; in test [3], 3700 nM; in test [4] it was 260 nM.

Regarding `COc1ccc(S(=O)(=O)N2CCc3ccc(NCc4ccc(C(=O)Nc5ccccc5N)cc4)cc32)cc1`, the IC50 in test [1] is 2400 nM; in test [2] it was 2100 nM; in test [3], above 10000 nM; in [4] it was 870 nM.

Turning to `COc1ccc(S(=O)(=O)n2ccc3cccc(NCc4ccc(C(=O)Nc5ccccc5N)cc4)c32)cc1`, the IC50 came out at 640 nM in test [1], 440 nM in test [2], 3700 nM in test [3] and 130 nM in [4].

`COc1cccc(S(=O)(=O)N2CCc3cccc(NCc4ccc(C(=O)Nc5ccccc5N)cc4)c32)c1`: the 50% inhibitory concentration (IC50) is 1100 nM in test [1], 800 nM in test [2], 3500 nM in test [3] and 780 nM in test [4].
